Assays:
[1] = test system: human LDL; assay: Primary in vitro screen: inhibition of initial rate of Cu++-dependent LDL lipid oxidation, compound directly added to LDL; format: biochemical; settings: CuSO4 10 μM, 37°, 90 min
Excerpt: (§1) The initial and later stages of LDL oxidation can be distinguished kinetically in vitro by measuring the formation of lipid conjugated diene oxidation products (ref. 10). By analogy to the behavior of antioxidants in simple single-phase systems (ref. 11), in vitro test systems were established to quantitate the protective effects of pure chemical compounds on Cu^++ -dependent LDL oxidation initial rate and lag phase. Both in vitro and ex vivo methods were employed to incorporate compounds into LDL. The magnitude of the decrease in the initial rate of conjugated diene formation was used as an estimate of the intrinsic LDL antioxidant potency of the test compound. The magnitude of the increase in lag time for the propagation phase of the oxidation chain reaction was used as an estimate of the effective concentration within LDL of the test compound. By this approach, quantitative estimation of the LDL antioxidant activity of compounds was used to identify chain-terminating antioxidants appropriate for testing in an in vivo atherosclerosis animal model.
This procedure determined the ability of test compounds added directly to LDL to inhibit the initial rate of LDL lipid oxidation monitored by conjugated diene content. The initial rate of conjugated diene formation was approximately linear with respect to time for approximately 2 hours under the conditions employed, prior to the end of the lag phase characterized by rapid propagation of the radical chain reaction and a corresponding large increase in conjugated diene content of the LDL sample. In the assay, aliquots of compounds dissolved in DMSO (and DMSO vehicle controls) were directly added to isolated human LDL (600 μg protein/mL) in Buffer 1 (10 mM HEPES, 150 mM NaCl, pH 7.2), and incubated at 37° for 60 min. Duplicate samples were then subjected to controlled oxidation by addition of CuSO4 (10 μM) and incubation at 37° for 0 or 90 min. The reaction was quenched by diluting with 5 volumes of buffer 1 plus EDTA (20 μM final) at 0° -4°. The conjugated diene levels in the LDL samples, a quantitative indicator of lipid peroxidation rate and extent, was determined spectrophotometrically by absorbance at 234 nm for each sample at 0 min and at 90 min time points of the CuSO4 incubation. […] Results are given in Table 1; a decrease vs. control reflects an active antioxidant.

[2] = test system: human LDL; assay: Secondary in vitro screen: LDL oxidation initial rate and lag time after in vitro plasma incorporation of compound into LDL; format: biochemical; settings: 25 μM in plasma incorporation; CuSO4 2.5 μM, 20°
Excerpt: as §1
(§2) A plasma incorporation technique was used in this procedure to test for the partitioning of a compound into LDL and its retention during LDL isolation by ultracentrifugation and dialysis. The antioxidant activity remaining in LDL was then assayed by measuring the initial rate of Cu^++ -dependent conjugated diene formation, and the lag time before extensive formation of conjugated diene oxidation products. Incorporation of test compounds into LDL in vitro was achieved by addition of an aliquot of compound (final concentration 25 μM) in DMSO to aliquots of pooled human plasma previously dialyzed overnight in buffer 1 (10 mM HEPES, 150 mM NaCl, pH 7.2) and adjusted to d=1.019 with solid KBr, and incubating for 60 min at 37°. LDL was then isolated from plasma as the ([…] to d=1.063 g/ml) fraction by standard sequential flotation techniques using KBr solution discontinuous density gradients in an ultracentrifuge by a method adapted from the original procedure of Havel (J. Clin. Invest. 34:1345). The isolated LDL was dialyzed for 1 hour into buffer 1, and aliquots were added to cuvettes at 100 μg protein/ml in buffer 1. Oxidation reactions were initiated with CuSO4 (2.5 μM) at 20°. The LDL initial oxidation rate and lag time were measured by continuous monitoring of absorbance at 234 nm in a Beckman DU-7500 spectrophotometer. The initial oxidation rate was calculated as the slope of the linear regression curve of A234 vs. time over the first ~60 min. Percent of control was calculated for test compound vs. DMSO vehicle controls. Lag time was calculated as the time corresponding to the maximum value of the first derivative of the A234 vs. time curve. The value of the lag time from the A234 vs. time curve for test compounds compared to vehicle control was expressed as percent of control. Results are given in Table 2; a decrease vs. control in the initial rate, and an increase vs. control in the lag time, reflect an active antioxidant.

[3] = test system: LDL; assay: Ex vivo LDL oxidation susceptibility assay in hamsters after 2 weeks oral administration; settings: hamster; for ex vivo LDL oxidation initial rate / ex vivo LDL oxidation lag time: oral in diet, mean of 4 to 6 hamsters
Excerpt: as §1, §2
Compounds were administered orally to hamsters for 2 weeks using the same diet described for the atherosclerosis studies (part D.) At 2 weeks, hamsters were fasted overnight, blood was collected, and LDL was isolated as described above (part B). The same assay methods described above (part B.) were then used to obtain ex vivo LDL oxidation initial rate and lag time values. Results are given in Table 3; a decrease vs. control in the initial rate, and an increase in the lag time, reflect an active antioxidant.

[4] = test system: aortic foam cell atherosclerosis lesion; assay: In vivo atherosclerosis model in hamsters: aortic foam cell lesion size after 10 weeks; settings: hamster; for aortic lesion size: oral in diet, mean ± SEM, n=12
Procedure: Atherosclerosis in hamsters is confined initially to a lesion prone area along the inner curvature of the aortic arch. Early atherogenesis in this region is characterized by the infiltration of monocytes which become lipid-filled macrophage foam cells, which can develop into complex fibrous atheromas. Antioxidants selected from primary and secondary in vitro screens and ex vivo assays were tested for their ability to inhibit macrophage foam cell lesion formation in hamsters in 10 weeks studies. Lesion size was assayed by video microscopy/image analysis of histological specimens of the aortic arch stained with the lipophilic dye, oil red O. Hamsters were maintained on a diet deficient in vitamins E, C, and K/menadione, selenium, and carotenoids, and supplemented with vitamin E-stripped corn oil (10%) and cholesterol (0.4%). This diet amplified oxidant stress while only moderately elevating plasma cholesterol and LDL levels. Test compounds were administered in this diet fed ad libitum for 10 weeks. The dosages are given as mg/kg/day based on food consumption measurements and weight of the animals at the end of the 10 week dosing period. […] Results are given in Table 4; a decrease in lesion size relative to control indicates an effective anti-atherosclerotic agent.

[5] = test system: aortic lesions; settings: cited from earlier work
[6] = test system: LDL; settings: rabbit, in vivo; cited from earlier work
[7] = test system: arterial lesion; settings: animal models of atherosclerosis, high doses; cited from earlier work
[8] = test system: LDL; settings: animal models of atherosclerosis, high doses; cited from earlier work

Row | Compound | LDL oxidation initial rate ([1]; 1.0 μM) | LDL oxidation initial rate [2] | LDL oxidation lag time [2] | ex vivo LDL oxidation initial rate ([3]; 60 mg/kg/day) | ex vivo LDL oxidation lag time ([3]; 60 mg/kg/day) | aortic lesions in rabbits [5] | protection of LDL from oxidation [6] | further results
1 | COc1ccc(O)c(C(C)(C)C)c1 [BHA, butylated hydroxyanisole] | 16 % of control | 11.0 % of control | 239 % of control | 77 % of control | 116 % of control | – | – | –
2 | CN(C)c1cc(-c2ccccc2)ccc1O [Example 1, 3-(Dimethylamino)[1,1'-biphenyl]-4-ol] | 42.2 % of control | 17.9 % of control | 237 % of control | 17 % of control | 482 % of control | – | – | LDL oxidation initial rate ([1]; 0.30 μM): 66.2 % of control; LDL oxidation initial rate ([1]; 3.0 μM): 34.0 % of control; LDL oxidation initial rate ([1]; 10 μM): 1.7 % of control; ex vivo LDL antioxidant activity relative to probucol and BHA ([3]; oral): markedly more active in this model than the reference agents probucol and BHA; anti-atherosclerotic effectiveness relative to probucol ([4]; oral): markedly more effective than the reference agent probucol; aortic lesion size ([4]; 3 mg/kg/day): 71.7 ± 13.7 % of control; aortic lesion size ([4]; 60 mg/kg/day): 46.2 ± 6.2 % of control
3 | c1ccc(Nc2ccc(Nc3ccccc3)cc2)cc1 [N,N'-diphenylphenylenediamine (DPPD), N,N'-diphenylphenylenediamine] | – | – | – | – | – | decrease aortic lesions in rabbits | protect LDL from oxidation | –
4 | Cc1cc(C(C)(C)C)c(O)c(C(C)(C)C)c1 [butylated hydroxytoluene (BHT), butylated hydroxytoluene] | – | – | – | – | – | decrease aortic lesions in rabbits | protect LDL from oxidation | –
5 | CC(C)(Sc1cc(C(C)(C)C)c(O)c(C(C)(C)C)c1)Sc1cc(C(C)(C)C)c(O)c(C(C)(C)C)c1 [probucol] | 79 % of control | 17.6 % of control | 293 % of control | – | – | – | – | ex vivo LDL oxidation initial rate ([3]; 120 mg/kg/day): 70 % of control; ex vivo LDL oxidation lag time ([3]; 120 mg/kg/day): 141 % of control; aortic lesion size ([4]; 120 mg/kg/day): 59.4 ± 6.4 % of control; arterial lesion size [7]: decreased arterial lesion size; oxidation of LDL in vivo [8]: decrease oxidation of LDL in vivo

Source: US5488068A, “Aminobiphenyl-4-ol anti-atherosclerotic compounds and method” (Bristol-Myers Squibb Company, priority 1994, dated 1996)
